Experimental data from patent US6703214B2, “Lipid uptake assays” (Devgen NV, priority 2000, dated 2004).

What was measured:
C. elegans = test: Fatty acid uptake assay after overnight compound incubation (activation of FATPs), C4-BODIPY-C9 probe; format: in vivo
Procedure: A fixed amount of probe is then distributed in the microtiter wells. The nematodes are incubated for one hour at room temperature in presence or absence of molecules to be tested. The microtiter plate is rinsed 3 to 4 times, using a standard plate washer (Wellwash, Labsystems, Zellik, Belgium), taking care to perform the aspiration sufficiently distant from the bottom of the well to avoid any loss of nematodes remaining at the bottom. The fluorescence intensity is then measured using a fluorescence microtiter plate reader, using a standard set of fluorescein filters.
Retinoic acid and troglutazones are activators of RXR and PPARγ respectively. C. elegans worms were incubated with these compounds in a range from 100 μM to 0.1 μM for a time period between 1 to 6 hours. Fatty acid uptake was measured using the microtiter plate assay described above.
More particularly, constitutive pharynx pumping worms in late L4 stage or young adults were incubated overnight on agar plates with different concentrations of the retinoic acid or troglutazone (e.g. Rosiglitazon). The compounds were added as solutions in 1 ml M9. After overnight incubation, these worms were further incubated for 1 h with 50 μM C4-BODIPY-C9 in 1 ml M9 on the same agar plates. After incubation the worms were washed three times and dispensed with the worm dispenser, up to 50 worms per well in the multi-well plates. Fluorescence intensity was measured using a microtiter plate reader, as described above.

[1] = system: wild type (N2) C. elegans; test: Lipid uptake assay with quenched probe (QBFA) in liquid culture after overnight compound incubation on agar plates; format: in vivo; details: L4 stage worms, about 16 h with various concentrations; 10 μM QBFA, fluorescence read after 2 hours; FIG. 21
Procedure: Standard 9 cm agar plates were seeded with E. coli (any strain suitable for use in culture of C. elegans may be used). 1 ml volume of rosiglitazone at various concentrations was added to the plates and the plates seeded with L4 stage C. elegans. After an overnight incubation (approximately 16 h), the C. elegans were isolated and washed three times with approximately 15 ml M9 buffer. The worms were then re-suspended into microtiter plates, at 100 worms per well. Quenched probe (QBFA) was added at a final concentration of 10 μM in a total volume of 100 μl. Fluorescence measurements were taken after 2 hours in an automated plate reader. Typical results are illustrated in FIG. 21.

Row | Compound | increase in fatty acid uptake (C. elegans; constitutive pharynx pumping worms, late L4/young adults, overnight incubation with compound on agar plates, 1 h with 50 μM C4-BODIPY-C9, FIG. 8) | increase in fatty acid uptake, also observed at low concentration (C. elegans; only 3 μM of Rosiglitazon applied, otherwise as E1) | effect on lipid uptake (in words) [1] | effect on fatty acid uptake (in words) (C. elegans; increased expression of FATP by applying the compound)
1 | CN(CCOc1ccc(CC2SC(=O)NC2=O)cc1)c1ccccn1 (stereo not shown) [Rosiglitazon] | 5 fold | 5 fold | have an effect on lipid uptake | –
2 | troglutazone | – | – | – | clearly enhanced fatty acid uptake
